Each structure is given as a SMILES string. pIC50: −log10 of the molar value.

The target in the assay is human TRPA1 channel (Homo sapiens (Human), UniProt O75762). The assay is described as follows: hTRPA1 CHO Ca2+ FLIPR Tetra assay, block of cinnamaldehyde induced calcium influx. As to conditions: read-out: hTRPA1 IC50 (10 min); CHO cells expressing TRPA1; compounds incubated 10 minutes at room temperature before cinnamaldehyde agonist; Hill coefficient fixed to 1.5. In kind it is cell-based. The protocol: CHO cells expressing TRPA1 were plated into 384-well plates, incubated overnight at 37° C., and loaded with BD calcium indicator dye for 1 hr at 37° C. followed by 15 minutes at room temperature. The assay buffer was Hank's Balanced Salt Solution (HBSS) containing 20 mM HEPES (pH readjusted to 7.4) along with 0.02% BSA.
Chain of human TRPA1 channel (O75762 whole entry): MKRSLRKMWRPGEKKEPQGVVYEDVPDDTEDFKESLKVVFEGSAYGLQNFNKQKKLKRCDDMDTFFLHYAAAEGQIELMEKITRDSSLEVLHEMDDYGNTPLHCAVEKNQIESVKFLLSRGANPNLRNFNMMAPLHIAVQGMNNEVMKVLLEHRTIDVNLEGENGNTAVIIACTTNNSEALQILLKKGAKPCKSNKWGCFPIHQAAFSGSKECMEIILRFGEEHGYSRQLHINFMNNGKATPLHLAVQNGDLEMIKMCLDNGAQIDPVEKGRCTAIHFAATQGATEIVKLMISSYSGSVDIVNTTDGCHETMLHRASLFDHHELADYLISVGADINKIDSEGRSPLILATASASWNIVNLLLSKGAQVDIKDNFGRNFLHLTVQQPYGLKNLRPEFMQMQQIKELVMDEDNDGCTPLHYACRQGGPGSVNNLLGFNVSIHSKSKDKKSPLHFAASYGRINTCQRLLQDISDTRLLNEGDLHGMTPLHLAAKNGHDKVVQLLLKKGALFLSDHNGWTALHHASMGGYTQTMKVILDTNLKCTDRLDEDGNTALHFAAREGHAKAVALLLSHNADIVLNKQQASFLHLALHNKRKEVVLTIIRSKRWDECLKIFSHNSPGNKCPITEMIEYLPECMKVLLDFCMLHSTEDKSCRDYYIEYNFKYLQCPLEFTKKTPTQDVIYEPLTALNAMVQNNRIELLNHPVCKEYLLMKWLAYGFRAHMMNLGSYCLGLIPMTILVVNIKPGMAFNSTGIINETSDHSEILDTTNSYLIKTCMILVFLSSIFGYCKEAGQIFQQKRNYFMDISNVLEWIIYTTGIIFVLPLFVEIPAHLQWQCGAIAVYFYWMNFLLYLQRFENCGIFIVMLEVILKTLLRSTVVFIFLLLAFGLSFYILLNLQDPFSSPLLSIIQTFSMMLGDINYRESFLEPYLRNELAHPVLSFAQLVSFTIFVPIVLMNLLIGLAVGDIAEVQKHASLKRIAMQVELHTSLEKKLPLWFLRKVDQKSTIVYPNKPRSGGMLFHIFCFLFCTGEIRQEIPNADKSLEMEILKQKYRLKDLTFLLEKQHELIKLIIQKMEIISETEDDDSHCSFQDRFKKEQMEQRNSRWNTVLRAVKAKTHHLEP
Following dye load and plate cool down, compounds were added to the cells using FLIPR Tetra. Plates were then incubated with compounds for 10 minutes or 90 minutes at room temperature prior to adding agonist. Following this incubation, about an EC50 concentration of cinnamaldehyde (75) was added to active the channels and block of cinnamaldehyde induced calcium influx was measured.
Fixing the Hill coefficient will generally reduce variability of the IC50 determination. The IC50 results were individually examined to make sure the MIN and MAX points were set correctly prior to validation of the results.
`Cc1ccnc2ncn(Cc3nc([C@H]4C[C@](O)(c5ccc(Cl)cc5)C4)no3)c(=O)c12` [Example Compound 10, 3-((3-((1s,3s)-3-(4-chlorophenyl)-3-hydroxycyclobutyl)-1,2,4-oxadiazol-5-yl)methyl)-5-methylpyrido[2,3-d]pyrimidin-4(3H)-one]: the pIC50 is 6.85. As to `O=c1c2cccnc2ncn1Cc1nc([C@H]2C[C@](O)(c3ccc(Cl)cc3)C2)no1` [Example Compound 11, 3-((3-((1s,3s)-3-(4-chlorophenyl)-3-hydroxycyclobutyl)-1,2,4-oxadiazol-5-yl)methyl)pyrido[2,3-d]pyrimidin-4(3H)-one], the pIC50 was 6.58. For `Cn1cnc2ncn(Cc3nc([C@H]4[C@@H]5CN(c6ccc(OC(F)F)cc6)C[C@@H]54)no3)c(=O)c21` [Example Compound 12, 7-methyl-1-[[3-[(1R,5S,6 r)-3-[4-(difluoromethoxy)phenyl]-3-azabicyclo[3.1.0]hexan-6-yl]-1,2,4-oxadiazol-5-yl]methyl]purin-6-one] the value was 7.30; for `COc1cccc(N2C[C@@H]3[C@H](C2)[C@H]3c2noc(Cn3cnc4ncn(C)c4c3=O)n2)c1` [Example Compound 13, 7-methyl-1-[[3-[(1R,5S,6 r)-3-(3-methoxyphenyl)-3-azabicyclo[3.1.0]hexan-6-yl]-1,2,4-oxadiazol-5-yl]methyl]purin-6-one], 6.80; for `Cc1ccnc2ncn(Cc3nc([C@H]4C[C@H](c5ccc(Cl)cc5)C4)no3)c(=O)c12` [Example Compound 17, 3-((3-((trans)-3-(4-chlorophenyl)cyclobutyl)-1,2,4-oxadiazol-5-yl)methyl)-5-methylpyrido[2,3-d]pyrimidin-4(3H)-one], 7.67. The same measure for `Cn1cnc2ncn(Cc3nc([C@H]4[C@@H]5CN(c6cccnc6)C[C@@H]54)no3)c(=O)c21` [Example Compound 18, 7-methyl-1-[[3-[(1R,5S,6r)-3-(3-pyridyl)-3-azabicyclo[3.1.0]hexan-6-yl]-1,2,4-oxadiazol-5-yl]methyl]purin-6-one]: 6.11; for `Cn1cnc2c(C#N)nn(Cc3nc([C@H]4[C@@H]5CN(c6ccccc6)C[C@@H]54)no3)c2c1=O` [Example Compound 22, 6-methyl-7-oxo-1-[[3-[(1R,5S,6s)-3-phenyl-3-azabicyclo[3.1.0]hexan-6-yl]-1,2,4-oxadiazol-5-yl]methyl]pyrazolo[4,3-d]pyrimidine-3-carbonitrile]: 6.45. Regarding `Cn1cnc2ncn(Cc3nc([C@@H]4[C@@H]5CN(c6cccc(Cl)c6)C[C@@H]54)no3)c(=O)c21` [Example Compound 24, 7-methyl-1-[[3-[(1R,5S,6 r)-3-(3-chlorophenyl)-3-azabicyclo[3.1.0]hexan-6-yl]-1,2,4-oxadiazol-5-yl]methyl]purin-6-one], the negative-log IC50 (pIC50) was 8.08. For `Cn1cnc2ncn(Cc3nc([C@H]4[C@@H]5CN(c6ccc(Cl)cc6)C[C@@H]54)no3)c(=O)c21` [Example Compound 25, 7-methyl-1-[[3-[(1R,5S,6 r)-3-(4-chlorophenyl)-3-azabicyclo[3.1.0]hexan-6-yl]-1,2,4-oxadiazol-5-yl]methyl]purin-6-one] the value was 7.69; for `Cc1ccnc2ncn(Cc3nc(C4Cc5ccccc5C4)no3)c(=O)c12` [Example Compound 27, 3-((3-(2,3-dihydro-1H-inden-2-yl)-1,2,4-oxadiazol-5-yl)methyl)-5-methylpyrido[2,3-d]pyrimidin-4(3H)-one], 6.27. The same measure for `Cc1ccnc2ncn(Cc3nc([C@H]4[C@@H]5CN(c6ccc(Cl)cc6)C[C@@H]54)no3)c(=O)c12` [Example Compound 29, 5-methyl-3-[[3-[(1R,5S,6r)-3-(4-chlorophenyl)-3-azabicyclo[3.1.0]hexan-6-yl]-1,2,4-oxadiazol-5-yl]methyl]pyrido[2,3-d]pyrimidin-4-one]: 6.54; for `Cn1cnc2ncn(Cc3nc([C@H]4[C@@H]5CN(c6cccc(C(F)(F)F)c6)C[C@@H]54)no3)c(=O)c21` [Example Compound 30, 7-methyl-1-[[3-[(1R,5S,6r)-3-[3-(trifluoromethyl)phenyl]-3-azabicyclo[3.1.0]hexan-6-yl]-1,2,4-oxadiazol-5-yl]methyl]purin-6-one]: 7.28. For `Cn1cnc2ncn(Cc3nc([C@H]4[C@@H]5CN(c6ccc(C(F)(F)F)cc6)C[C@@H]54)no3)c(=O)c21` [Example Compound 31, 7-methyl-1-[[3-[(1R,5S,6r)-3-[4-(trifluoromethyl)phenyl]-3-azabicyclo[3.1.0]hexan-6-yl]-1,2,4-oxadiazol-5-yl]methyl]purin-6-one] the value was 7.01; for `Cn1cnc2ncn(Cc3nc([C@H]4[C@@H]5CN(c6ccc(C=O)cc6)C[C@@H]54)no3)c(=O)c21` [Example Compound 32, 4-[(1R,5S,6r)-6-[5-[(7-methyl-6-oxo-purin-1-yl)methyl]-1,2,4-oxadiazol-3-yl]-3-azabicyclo[3.1.0]hexan-3-yl]benzaldehyde], 7.26; for `Cn1cnc2ncn(Cc3nc([C@H]4[C@@H]5CN(c6ccc7ccccc7c6)C[C@@H]54)no3)c(=O)c21` [Example Compound 33, 7-methyl-1-[[3-[(1R,5S,6r)-3-[2-naphthyl]-3-azabicyclo[3.1.0]hexan-6-yl]-1,2,4-oxadiazol-5-yl]methyl]purin-6-one], 8.14. Take `Cn1cnc2ncn(Cc3nc([C@H]4[C@@H]5CN(c6ccc(Cl)nc6)C[C@@H]54)no3)c(=O)c21` [Example Compound 34, 7-methyl-1-[[3-[(1R,5S,6r)-3-[6-chloro-3-pyridyl]-3-azabicyclo[3.1.0]hexan-6-yl]-1,2,4-oxadiazol-5-yl]methyl]purin-6-one]: the pIC50 is 6.33. In the case of `COc1ccc(N2C[C@@H]3[C@H](C2)[C@H]3c2noc(Cn3cnc4ncn(C)c4c3=O)n2)cc1` [Example Compound 35, 7-methyl-1-[[3-[(1R,5S,6r)-3-[4-methoxyphenyl]-3-azabicyclo[3.1.0]hexan-6-yl]-1,2,4-oxadiazol-5-yl]methyl]purin-6-one], the pIC50 is 7.32. In the case of `Cc1cncc2ncn(Cc3nc([C@H]4[C@@H]5CN(c6ccc(Cl)cc6)C[C@@H]54)no3)c(=O)c12` [Example Compound 36, 5-methyl-3-[[3-[(1R,5S,6r)-3-(4-chlorophenyl)-3-azabicyclo[3.1.0]hexan-6-yl]-1,2,4-oxadiazol-5-yl]methyl]pyrido[3,4-d]pyrimidin-4-one], the pIC50 is 7.15. Consider `Cc1cncc2ncn(Cc3nc([C@H]4C[C@](F)(c5ccc(Cl)cc5)C4)no3)c(=O)c12` [Example Compound 37, 3-((3-((1s,3s)-3-(4-chlorophenyl)-3-fluorocyclobutyl)-1,2,4-oxadiazol-5-yl)methyl)-5-methylpyrido[3,4-d]pyrimidin-4(3H)-one], for which the pIC50 was 7.64. With `Cc1ccnc2ncn(Cc3nc([C@H]4C[C@](F)(c5ccc(Cl)cc5)C4)no3)c(=O)c12` [Example Compound 38, 3-((3-((1s,3s)-3-(4-chlorophenyl)-3-fluorocyclobutyl)-1,2,4-oxadiazol-5-yl)methyl)-5-methylpyrido[2,3-d]pyrimidin-4(3H)-one], the pIC50 is 7.54.
